Drawing on patent US11780826B2 (Amgen Inc., priority 2017, dated 2023), this text covers AC1.4 for 26 compounds.

For the experiment, the system named is Bovine cardiac myofibrils. As to the kind of experiment: In vitro model of dose-dependent myofibril ATPase modulation (AC1.4, pyruvate kinase/lactate dehydrogenase-coupled ATPase assay at pCa25). The class given is biochemical. The conditions noted are these: concentration at which ATPase activity was 1.4-fold higher than the bottom of the dose curve, mean of a minimum of two independent tests. The method in brief: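 ATP turnover tracked as NADH absorbance loss at 340 nm, coupled via pyruvate kinase/lactate dehydrogenase, with 1 mM ATP, 2 mM MgCl2 and 12 mM K-PIPES at pH 6.80 (22° C) under EGTA/CaCl2 calcium buffering. Substrate was detergent-treated bovine cardiac myofibrils; 4-parameter curve fit, AC1.4 averaged over at least two runs.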
As for `N#CC1CN(S(=O)(=O)N2CCC[C@H](C(=O)N3CCC[C@@H]3C(=O)NCc3cc(F)c(F)c(F)c3)C2)C1` [Example 153, 1-(((3S)-1-((3-cyano-1-azetidinyl)sulfonyl)-3-piperidinyl)carbonyl)-N-(3,4,5-trifluorobenzyl)-D-prolinamide], the AC1.4 is 0.2697 µM.
As for `Cc1noc(C2CN(S(=O)(=O)N3CCC[C@H](C(=O)N4CCC[C@@H]4C(=O)NCc4ccc(C(F)(F)F)cc4)C3)C2)n1` [Example 688, 1-(((3S)-1-((3-(3-methyl-1,2,4-oxadiazol-5-yl)-1-azetidinyl)sulfonyl)-3-piperidinyl)carbonyl)-N-(4-(trifluoromethyl)benzyl)-D-prolinamide], the figure is 5.317 µM; as for `CS(=O)(=O)c1cccc(C(=O)N2CCC[C@@H]2C(=O)N[C@@H](c2ccc(C(F)F)cc2F)C2CC2)c1` [Example 721, N-((R)-cyclopropyl(4-(difluoromethyl)-2-fluorophenyl)methyl)-1-(3-(methylsulfonyl)benzoyl)-D-prolinamide], 6.2885 µM; as for `O=C(O)CS(=O)(=O)c1cccc(C(=O)N2[C@@H](C(=O)N[C@@H](c3cc(F)c(C(F)(F)F)cc3F)C3CC3)C[C@H]3C[C@H]32)c1` [Example 306, ((3-(((1R,3R,5R)-3-(((R)-cyclopropyl(2,5-difluoro-4-(trifluoromethyl)phenyl)methyl)carbamoyl)-2-azabicyclo[3.1.0]hexan-2-yl)carbonyl)phenyl)sulfonyl)acetic acid], 0.8057 µM.
Under `C[C@@H](NC(=O)[C@H]1CCCN1C(=O)[C@H]1CCCN(S(=O)(=O)N2CC(S(C)(=O)=O)C2)C1)c1ccc(Cl)cc1` [Example 150, N-((1R)-1-(4-chlorophenyl)ethyl)-1-(((3S)-1-((3-(methylsulfonyl)-1-azetidinyl)sulfonyl)-3-piperidinyl)carbonyl)-D-prolinamide] stands 0.2589 µM; under `N#CC1CN(S(=O)(=O)N2CCC[C@H](C(=O)N3CCC[C@@H]3C(=O)N[C@@H](c3ccc(C(F)(F)F)cc3)C3CC3)C2)C1` [Example 11, 1-(((3S)-1-((3-cyano-1-azetidinyl)sulfonyl)-3-piperidinyl)carbonyl)-N-((R)-cyclopropyl(4-(trifluoromethyl)phenyl)methyl)-D-prolinamide], 0.0215 µM.
As for `CS(=O)(=O)c1cccc(C(=O)N2C[C@@H](F)C[C@@H]2C(=O)N[C@@H](c2ccc(Cl)c(F)c2)C2COC2)c1` [Example 365, (4S)-N-((R)-(4-chloro-3-fluorophenyl)(3-oxetanyl)methyl)-4-fluoro-1-(3-(methylsulfonyl)benzoyl)-D-prolinamide], the figure is 1.139 µM; as for `O=C(NCc1ccc(C(F)(F)F)cc1)[C@H]1CCCN1C(=O)[C@H]1CCCN(S(=O)(=O)N2CC(C(F)F)C2)C1` [Example 274, 1-(((3S)-1-((3-(difluoromethyl)-1-azetidinyl)sulfonyl)-3-piperidinyl)carbonyl)-N-(4-(trifluoromethyl)benzyl)-D-prolinamide], 0.6977 µM; as for `N#CC1CN(S(=O)(=O)N2CCC[C@H](C(=O)N3CCC[C@@H]3C(=O)NCc3cc(C(F)(F)F)ccc3F)C2)C1` [Example 674, 1-(((3S)-1-((3-cyano-1-azetidinyl)sulfonyl)-3-piperidinyl)carbonyl)-N-(2-fluoro-5-(trifluoromethyl)benzyl)-D-prolinamide], 4.9025 µM.
Take `COc1ccc(CNC(=O)[C@H]2CCCN2C(=O)[C@H]2CCCN(S(=O)(=O)N3CC(C#N)C3)C2)cc1Cl` [Example 591, N-(3-chloro-4-methoxybenzyl)-1-(((3S)-1-((3-cyano-1-azetidinyl)sulfonyl)-3-piperidinyl)carbonyl)-D-prolinamide]: the AC1.4 turned out to be 3.476 µM.
As for `CS(=O)(=O)c1cccc(C(=O)N2[C@@H](C(=O)NC(c3ccc(C(F)(F)F)cc3F)C3CNC(=O)C3)C[C@H]3C[C@H]32)c1` (stereo partly drawn) [Example 244, (1R,3R,5R)-N-((2-fluoro-4-(trifluoromethyl)phenyl)(5-oxopyrrolidin-3-yl)methyl)-2-(3-(methylsulfonyl)benzoyl)-2-azabicyclo[3.1.0]hexane-3-carboxamide], the figure is 0.5793 µM; as for `O=C(N[C@@H](c1ccc(C(F)(F)F)cc1F)C1CC1)[C@H]1CCCN1C(=O)c1cccc(C2(F)COC2)c1` [Example 577, N—((R)-cyclopropyl(2-fluoro-4-(trifluoromethyl)phenyl)methyl)-1-(3-(3-fluoro-3-oxetanyl)benzoyl)-D-prolinamide], 3.2945 µM; as for `CCS(=O)(=O)c1cccc(C(=O)N2[C@@H](C(=O)NCc3cc(F)c(Cl)cc3F)C[C@H]3C[C@H]32)c1` [Example 617, (1R,3R,5R)-N-(4-chloro-2,5-difluorobenzyl)-2-(3-(ethylsulfonyl)benzoyl)-2-azabicyclo[3.1.0]hexane-3-carboxamide], 3.626 µM.
In turn, `Cc1ccc(S(N)(=O)=O)cc1C(=O)N1CCC[C@@H]1C(=O)N[C@@H](c1ccc(C(F)(F)F)cc1F)C1CC1` [Example 716, N-((R)-cyclopropyl(2-fluoro-4-(trifluoromethyl)phenyl)methyl)-1-(2-methyl-5-sulfamoylbenzoyl)-D-prolinamide] displayed an AC1.4 of 6.168 µM.
Under `O=C(N[C@@H](c1cc(F)c(Cl)cc1F)C1COC1)[C@H]1C[C@H]2C[C@H]2N1C(=O)c1cc(C2CC2)ccn1` [Example 471, (1R,3R,5R)-N-((R)-(4-chloro-2,5-difluorophenyl)(3-oxetanyl)methyl)-2-((4-cyclopropyl-2-pyridinyl)carbonyl)-2-azabicyclo[3.1.0]hexane-3-carboxamide] stands 1.996 µM.
Under `COC(=O)CN(C)S(=O)(=O)c1cccc(C(=O)N2CCC[C@@H]2C(=O)NCc2ccc(C(F)(F)F)cc2)c1` [Example 346, methyl (R)-2-(N-methyl-3-(2-((4-(trifluoromethyl)benzyl)carbamoyl)pyrrolidine-1-carbonyl)phenylsulfonamido)acetate] stands 1.0139 µM; under `N#CC1CN(S(=O)(=O)N2CCC[C@H](C(=O)N3CCC[C@@H]3C(=O)NCc3cccc(F)c3Cl)C2)C1` [Example 418, N-(2-chloro-3-fluorobenzyl)-1-(((3S)-1-((3-cyano-1-azetidinyl)sulfonyl)-3-piperidinyl)carbonyl)-D-prolinamide], 1.5305 µM; under `N#CC1CN(S(=O)(=O)c2cccc(C(=O)N3CCC[C@@H]3C(=O)NCc3ccc(Cl)nc3)c2)C1` [Example 260, N-((6-chloro-3-pyridinyl)methyl)-1-((3-((3-cyano-1-azetidinyl)sulfonyl)phenyl)carbonyl)-D-prolinamide], 0.639 µM.
On to `N#CC1CN(S(=O)(=O)c2cccc(C(=O)N3CCC[C@@H]3C(=O)NCc3ccc(C(F)F)cc3)c2)C1` [Example 102, 1-((3-((3-cyano-1-azetidinyl)sulfonyl)phenyl)carbonyl)-N-(4-(difluoromethyl)benzyl)-D-prolinamide], for which the AC1.4 is 0.1574 µM.
As for `COc1cc(C(C)NC(=O)[C@H]2CCCN2C(=O)[C@H]2CCCN(S(=O)(=O)N3CC(C#N)C3)C2)ccc1OC(F)F` (stereo partly drawn) [Example 632, (2R)-1-((S)-1-((3-cyanoazetidin-1-yl)sulfonyl)piperidine-3-carbonyl)-N-(1-(4-(difluoromethoxy)-3-methoxyphenyl)ethyl)pyrrolidine-2-carboxamide], the figure is 4.0915 µM; as for `CS(=O)(=O)c1cccc(C(=O)N2C[C@@H]3C[C@@H]3[C@@H]2C(=O)N[C@@H](c2ccc(C(F)(F)F)cc2F)C2CC2)c1` [Example 484, (1S,2R,5R)-N-((R)-cyclopropyl(2-fluoro-4-(trifluoromethyl)phenyl)methyl)-3-(3-(methylsulfonyl)benzoyl)-3-azabicyclo[3.1.0]hexane-2-carboxamide], 2.014 µM.
`CS(=O)(=O)c1cccc(C(=O)N2[C@@H](C(=O)N[C@@H](c3cc(F)c(C#N)cc3F)C3CC3)C[C@H]3C[C@H]32)c1` [Example 570, (1R,3R,5R)-N-((R)-(4-cyano-2,5-difluorophenyl)(cyclopropyl)methyl)-2-(3-(methylsulfonyl)benzoyl)-2-azabicyclo[3.1.0]hexane-3-carboxamide] displayed an AC1.4 of 3.1825 µM.
In the case of `C[C@@H](NC(=O)[C@H]1CCCN1C(=O)[C@H]1CCCN(S(=O)(=O)N2CC(C)(O)C2)C1)c1ccc(C(F)(F)F)cc1F` [Example 597, N-((1R)-1-(2-fluoro-4-(trifluoromethyl)phenyl)ethyl)-1-(((3S)-1-((3-hydroxy-3-methyl-1-azetidinyl)sulfonyl)-3-piperidinyl)carbonyl)-D-prolinamide], the AC1.4 worked out at 3.5295 µM.
As for `CN1CC(C(=O)N[C@@H](c2ccc(C(F)(F)F)cc2F)C2CC2)N(C(=O)c2cccc(S(C)(=O)=O)c2)C1=O` (stereo partly drawn) [Example 696, N-((R)-cyclopropyl(2-fluoro-4-(trifluoromethyl)phenyl)methyl)-1-methyl-3-(3-(methylsulfonyl)benzoyl)-2-oxoimidazolidine-4-carboxamide], the figure is 5.525 µM; as for `CN1CC(C(NC(=O)[C@H]2C[C@H]3C[C@H]3N2C(=O)c2cccc(S(C)(=O)=O)c2)c2ccc(C(F)(F)F)cc2F)CC1=O` (stereo partly drawn) [Example 519, (1R,3R,5R)-N-((2-fluoro-4-(trifluoromethyl)phenyl)(1-methyl-5-oxopyrrolidin-3-yl)methyl)-2-(3-(methylsulfonyl)benzoyl)-2-azabicyclo[3.1.0]hexane-3-carboxamide], 2.367 µM; as for `CS(=O)(=O)c1cc(F)cc(C(=O)N2[C@@H](C(=O)N[C@@H](c3ccc(C(F)(F)F)cc3F)C3COC3)C[C@H]3C[C@H]32)c1` [Example 219, (1R,3R,5R)-2-(3-fluoro-5-(methylsulfonyl)benzoyl)-N-((R)-(2-fluoro-4-(trifluoromethyl)phenyl)(3-oxetanyl)methyl)-2-azabicyclo[3.1.0]hexane-3-carboxamide], 0.4808 µM.
